The results in this text go back to PubChem BioAssay AID1259407 (Chemical Carcinogenesis Research Information System (CCRIS), 2018).

This series concerns CCRIS mutagenicity, Ames/micronucleus/aberration tests. The series can be described thus: CCRIS mutagenicity studies. Conditions: Test System: AMES SALMONELLA TYPHIMURIUM
Where [1] appears, read: Strain/Indicator: TA98, Metabolic Activation: HAMSTER, LIVER, S-9, AROCLOR 1254 (10%), Method: PREINCUBATION
Where [2] appears, read: Strain/Indicator: TA98, Metabolic Activation: NONE, Method: PREINCUBATION
Setting [3] is: Strain/Indicator: TA98, Metabolic Activation: RAT, LIVER, S-9, AROCLOR 1254 (10%), Method: PREINCUBATION
The mark [4] stands for this setting: Strain/Indicator: TA100, Metabolic Activation: HAMSTER, LIVER, S-9, AROCLOR 1254 (10%), Method: PREINCUBATION
Setting [5] is: Strain/Indicator: TA100, Metabolic Activation: NONE, Method: PREINCUBATION
The mark [6] stands for this setting: Strain/Indicator: TA100, Metabolic Activation: NONE, Method: STANDARD PLATE.
The mark [7] stands for this setting: Strain/Indicator: TA100, Metabolic Activation: RAT, LIVER, S-9, AROCLOR 1254 (10%), Method: PREINCUBATION
Where [8] appears, read: Strain/Indicator: TA1535, Metabolic Activation: HAMSTER, LIVER, S-9, AROCLOR 1254 (10%), Method: PREINCUBATION
[9] abbreviates: Strain/Indicator: TA1535, Metabolic Activation: NONE, Method: PREINCUBATION
The mark [10] stands for this setting: Strain/Indicator: TA1535, Metabolic Activation: RAT, LIVER, S-9, AROCLOR 1254 (10%), Method: PREINCUBATION
[11] abbreviates: Strain/Indicator: TA1537, Metabolic Activation: HAMSTER, LIVER, S-9, AROCLOR 1254 (10%), Method: PREINCUBATION
Setting [12] is: Strain/Indicator: TA1537, Metabolic Activation: NONE, Method: PREINCUBATION
Where [13] appears, read: Strain/Indicator: TA1537, Metabolic Activation: RAT, LIVER, S-9, AROCLOR 1254 (10%), Method: PREINCUBATION

Structures are written as SMILES. The source made the active and inactive calls. The rule behind the calls is not given here.

On to `COc1c(C(C)(C)C)cc([N+](=O)[O-])c(C)c1[N+](=O)[O-]`, for which the mutagenic call was “inactive; negative” under setting [1]; “inactive; negative” under setting [2]; “inactive; negative” (Strain/Indicator: TA98, Metabolic Activation: NONE, Method: STANDARD PLATE); “inactive; negative” (Strain/Indicator: TA98, Metabolic Activation: RAT, LIVER, AROCLOR 1254, Method: STANDARD PLATE); “inactive; negative” under setting [3]; “inactive; negative” (Strain/Indicator: TA98, Metabolic Activation: RAT, LIVER, S-9, AROCLOR 1254, Method: PREINCUBATION). For the same molecule, the mutagenic call was “inactive; negative” (Strain/Indicator: TA98, Metabolic Activation: RAT, LIVER, S-9, AROCLOR 1254, Method: STANDARD PLATE); “inactive; negative” (Strain/Indicator: TA100 (NR), Metabolic Activation: NONE, Method: STANDARD PLATE); “inactive; negative” (Strain/Indicator: TA100(NR), Metabolic Activation: RAT LIVER S-9, AROCLOR 1254, Method: STANDARD PLATE); “inactive; negative” under setting [4]; “inactive; negative” under setting [5]; “inactive; negative” under setting [6]. For the same molecule, the mutagenic call (Strain/Indicator: TA100, Metabolic Activation: RAT LIVER S-9, AROCLOR 1254, Method: STANDARD PLATE) is “active; positive”; the mutagenic call under setting [7] was “inactive; negative”; the mutagenic call (Strain/Indicator: TA100, Metabolic Activation: RAT, LIVER, S-9, AROCLOR 1254, Method: PREINCUBATION) was “active; positive”; the mutagenic call (Strain/Indicator: TA100, Metabolic Activation: RAT, LIVER, S-9, AROCLOR 1254, Method: STANDARD PLATE) is “active; positive”; the mutagenic call under setting [8] is “inactive; negative”; the mutagenic call under setting [9] was “inactive; negative”. Moreover, the mutagenic call is “inactive; negative” under setting [10], “inactive; negative” under setting [11], “inactive; negative” under setting [12] and “inactive; negative” under setting [13].

Turning to `COc1ccc(C(=O)Nc2ccccc2)cc1[N+](=O)[O-]`, the mutagenic call by setting is: (Strain/Indicator: TA97, Metabolic Activation: HAMSTER, LIVER, S-9, AROCLOR 1254 (10%), Method: PREINCUBATION) “active; positive”; (Strain/Indicator: TA97, Metabolic Activation: NONE, Method: PREINCUBATION) “inactive; negative”; (Strain/Indicator: TA97, Metabolic Activation: RAT, LIVER, S-9, AROCLOR 1254 (10%), Method: PREINCUBATION) “active; positive”; under setting [1], “active; positive”; under setting [2], “inactive; negative”; under setting [3], “active; positive”. Besides, the mutagenic call reads like this: under setting [4], “active; positive”; under setting [5], “active; positive”; under setting [7], “active; positive”; under setting [8], “inactive; negative”; under setting [9], “inactive; negative”; under setting [10], “inactive; negative”. Further, the mutagenic call under setting [11] was “active; positive”, the mutagenic call under setting [12] was “inactive; negative” and the mutagenic call under setting [13] was “active; positive”.

Turning to `C=CCCCCC1CO1` (centres undefined), the mutagenic call runs as follows: under setting [6], “inactive; negative”; (Strain/Indicator: TA1535, Metabolic Activation: NONE, Method: STANDARD PLATE) “active; positive”.
